One test concerns NnOMT6N323A. Nature of the test: In vitro enzymatic activity test of NnOMT6N323A (O-methylation of benzylisoquinoline substrates, UPLC-QTOF-MS/MS). In kind it is biochemical, Nelumbo nucifera. The following applies: mutant versus wild-type, FIG. 4. The protocol:
(§1) An in vitro enzymatic activity reaction was conducted at a pH value of 8.0 and 37° C. for 12 h in a 100 μL system containing 50 mM of a potassium phosphate buffer, 100 μM of a substrate, 200 μM of a SAM donor, and 50 μg of the purified protein. 100 μL of methanol was added to terminate the above reaction, the protein was centrifuged at 12,000×g for 30 min in a centrifuge, and a resulting supernatant was passed through a 0.22 μm microporous membrane and injected into UPLC-QTOF-MS/MS for detection. A sample prepared in a same way with boiled purified protein was served as a negative control.
The NnOMT6N323A was studied for substrate promiscuity with 15 benzylisoquinoline compounds (norcoclaurine (1), coclaurine (2), N-methylcoclaurine (3), norarmepavine (4), armepavine (5), lotusine (6), asimilobine (7), N-methlyasimilobine (8), lirinidine (9), liensinine (10), isoliensinine (11), neferine (12), scoulerine (13), tetrahydrocolumbamine (14), and jatrorrhizine (15)).
The chromatographic conditions were as follows: a chromatographic column was an ACQUITY UPLC CSH C18 column (2.1 mm×50 mm, 1.7 μm). A mobile phase A was 0.1% formic acid water, and a mobile phase B was acetonitrile; gradient elution was conducted, including: 0-0.5 min, 2% B; 0.5-1 min, 2%-5% B; 1-5 min, 5%-9% B; […], 9%-10% B; […], 10%-15% B; 16-20 min, 15%-45% B; 20-22 min, 45% B-100% B. A sample injection volume was 2 μL, a column temperature was 35° C., and a flow rate was 0.3 mL/min.
The mass spectrometry conditions were as follows: an ion source was a Dusal ESI source; the substrate was detected in a positive ion (PI) mode with a scan range of m/z 100-1000. […] MS/MS analysis was conducted with a collision energy of 30 eV and a collision energy voltage of 20 V.
For `COc1cc2c(cc1O)C(Cc1ccc(O)cc1)NCC2` (stereo not drawn) [Compound 2, coclaurine], the “enhancement of catalytic activity of mutant NnOMT6N323A compared with wild-type O-methyltransferase” value is reported as “about two times”.

The same test, now with this note: pH 8.0, 37° C., 12 h; 100 μM substrate, 200 μM SAM, 50 μg purified protein.
Consider `Oc1ccc(CC2NCCc3cc(O)c(O)cc32)cc1` (stereo not drawn) [Compound 1, norcoclaurine], for which the “catalytic (O-methylation) activity of NnOMT6N323A on substrate, in words” value (“catalytic (O-methylation) activity” for short) is “could catalyze the O-methylation” and the “conversion rate (O-methylation of substrate by NnOMT6N323A)” value (“conversion rate” below) is reported as 63.7%.
As to `COc1cc2c(cc1O)C(Cc1ccc(O)cc1)NCC2` (stereo not drawn) [Compound 2, coclaurine], the “catalytic (O-methylation) activity” value is reported as “could catalyze the O-methylation” and the “conversion rate” value is on record as 34.8%.
For the compound `COc1cc2c(cc1O)[C@@H](Cc1ccc(O)cc1)N(C)CC2` [Compound 3, N-methylcoclaurine], the “catalytic (O-methylation) activity” value is reported as “could catalyze the O-methylation” and the “conversion rate” value was 47.6%.
Regarding `COc1cc2c(cc1O)[C@@H]1Cc3ccc(OC)c(O)c3CN1CC2` [Compound 13, scoulerine], the “catalytic (O-methylation) activity” value is reported as “could catalyze the O-methylation”.
The same measure, in the same setting: then `COc1cc2c(cc1OC)[C@@H]1Cc3ccc(OC)c(O)c3CN1CC2` [Compound 13a, tetrahydropalmatrubine], with “further catalyzed”.
With `COc1cc2c(cc1O)[C@@H]1Cc3ccc(OC)c(OC)c3CN1CC2` [Compound 14, tetrahydrocolumbamine], the “catalytic (O-methylation) activity” value is recorded as “could catalyze the O-methylation” and the “conversion rate” value is recorded as “about 42.3%”.
On to `COc1cc2c(cc1O)CC[n+]1cc3c(OC)c(OC)ccc3cc1-2` [Compound 15, jatrorrhizine], for which the “catalytic (O-methylation) activity” value is reported as “no activity”.
Consider N-methlyasimilobine [Compound 8], for which the “catalytic (O-methylation) activity” value is on record as “could catalyze the O-methylation” and the “conversion rate” value worked out at 55.4%.
In the same order, the values of asimilobine [Compound 7] are “could catalyze the O-methylation” and 60.8%.
With lirinidine [Compound 9], the “catalytic (O-methylation) activity” value is on record as “no catalytic activity”.

The subject of a further test is wild-type O-methyltransferase. The test is described as follows: In vitro enzymatic activity of wild-type O-methyltransferase (comparison with mutant). In kind it is biochemical, Nelumbo nucifera. The conditions noted are these: same method as Example 1. The protocol:
as §1
A specific experimental method was the same as that in Example 1.
As for `COc1cc2c(cc1O)[C@@H]1Cc3ccc(OC)c(OC)c3CN1CC2` [Compound 14, tetrahydrocolumbamine], the “catalytic activity of wild-type O-methyltransferase on substrate, in words” value is “no catalytic activity”.

(Values after patent publication US12091696B2, “O-methyltransferase protein with highly specific catalytic function for multiple bias parent nuclei and encoding gene and use thereof” (INSTITUTE OF CHINESE MATERIA MEDICA CHINA ACADEMY OF …, priority 2023, dated 2024).)
